Data published in ChEMBL document CHEMBL4507268 (2021).

Legend:
[1] = target: D(2) dopamine receptor (Homo sapiens) (UniProt P14416); conditions: Compound concentration 10.0 uM
[2] = target: T1, Inhibitor of nuclear factor kappa-B kinase subunit alpha (Homo sapiens) (UniProt O15111); conditions: Compound concentration 1.0 uM
T1 sequence (whole entry): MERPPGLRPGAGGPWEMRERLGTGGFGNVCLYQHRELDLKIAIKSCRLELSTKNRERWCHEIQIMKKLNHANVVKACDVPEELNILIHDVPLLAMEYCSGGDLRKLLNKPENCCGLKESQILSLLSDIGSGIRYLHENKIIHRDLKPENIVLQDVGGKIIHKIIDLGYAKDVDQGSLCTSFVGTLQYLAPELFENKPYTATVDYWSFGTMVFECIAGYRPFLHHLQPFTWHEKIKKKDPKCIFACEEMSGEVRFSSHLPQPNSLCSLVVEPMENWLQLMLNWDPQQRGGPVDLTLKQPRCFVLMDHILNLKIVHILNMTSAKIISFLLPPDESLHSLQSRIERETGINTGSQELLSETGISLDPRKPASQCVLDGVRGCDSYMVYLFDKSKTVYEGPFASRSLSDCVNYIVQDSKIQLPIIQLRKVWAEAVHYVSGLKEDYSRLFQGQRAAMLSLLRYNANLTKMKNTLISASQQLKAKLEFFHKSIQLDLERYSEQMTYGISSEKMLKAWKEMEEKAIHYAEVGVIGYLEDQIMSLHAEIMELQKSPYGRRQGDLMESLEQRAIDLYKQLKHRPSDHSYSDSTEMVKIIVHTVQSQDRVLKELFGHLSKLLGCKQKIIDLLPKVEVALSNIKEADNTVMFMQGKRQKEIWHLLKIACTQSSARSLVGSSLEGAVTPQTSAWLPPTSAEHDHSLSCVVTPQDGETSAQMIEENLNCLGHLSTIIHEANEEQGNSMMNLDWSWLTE

[3] = target: Dual specificity tyrosine-phosphorylation-regulated kinase 1B (Homo sapiens) (UniProt Q9Y463); conditions: Compound concentration 1.0 uM
[4] = target: T2, G protein-coupled receptor kinase 3 (Homo sapiens) (UniProt P35626); conditions: Compound concentration 1.0 uM
T2 sequence (whole entry): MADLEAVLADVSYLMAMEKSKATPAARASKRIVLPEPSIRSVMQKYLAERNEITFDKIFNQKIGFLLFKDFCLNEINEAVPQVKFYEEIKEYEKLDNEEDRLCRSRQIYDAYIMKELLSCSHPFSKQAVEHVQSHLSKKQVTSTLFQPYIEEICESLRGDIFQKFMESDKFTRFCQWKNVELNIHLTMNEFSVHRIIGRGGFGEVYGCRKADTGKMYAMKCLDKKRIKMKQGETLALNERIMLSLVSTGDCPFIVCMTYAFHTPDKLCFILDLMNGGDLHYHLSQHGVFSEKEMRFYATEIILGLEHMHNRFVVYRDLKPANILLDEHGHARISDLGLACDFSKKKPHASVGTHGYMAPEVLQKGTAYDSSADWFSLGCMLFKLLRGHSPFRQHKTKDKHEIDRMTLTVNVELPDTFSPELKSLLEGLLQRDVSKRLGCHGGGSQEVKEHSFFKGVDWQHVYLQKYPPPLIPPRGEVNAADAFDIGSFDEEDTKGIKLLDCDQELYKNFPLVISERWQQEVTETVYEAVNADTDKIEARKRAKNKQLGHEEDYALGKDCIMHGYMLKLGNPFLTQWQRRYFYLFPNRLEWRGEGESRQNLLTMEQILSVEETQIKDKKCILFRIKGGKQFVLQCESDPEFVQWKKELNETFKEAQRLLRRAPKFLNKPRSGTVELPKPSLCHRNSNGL

[5] = target: Mitogen-activated protein kinase 9 (Homo sapiens) (UniProt P45984); conditions: Compound concentration 1.0 uM
Chain of Mitogen-activated protein kinase 9 (Homo sapiens) (P45984 whole entry, looked up): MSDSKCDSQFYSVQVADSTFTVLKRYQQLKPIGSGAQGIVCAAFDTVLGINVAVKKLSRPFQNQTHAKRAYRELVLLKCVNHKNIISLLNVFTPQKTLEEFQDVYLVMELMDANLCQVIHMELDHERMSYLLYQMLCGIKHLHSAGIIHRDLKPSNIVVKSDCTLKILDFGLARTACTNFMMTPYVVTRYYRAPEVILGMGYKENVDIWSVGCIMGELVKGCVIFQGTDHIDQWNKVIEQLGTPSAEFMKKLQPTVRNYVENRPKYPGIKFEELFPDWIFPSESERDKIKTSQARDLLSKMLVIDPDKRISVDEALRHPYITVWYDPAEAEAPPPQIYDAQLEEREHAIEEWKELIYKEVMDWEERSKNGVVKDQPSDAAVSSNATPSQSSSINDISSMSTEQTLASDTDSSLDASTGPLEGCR

[6] = target: Insulin receptor (Homo sapiens) (UniProt P06213); conditions: Compound concentration 1.0 uM
Chain of Insulin receptor (Homo sapiens) (P06213 28-758 limits assumed): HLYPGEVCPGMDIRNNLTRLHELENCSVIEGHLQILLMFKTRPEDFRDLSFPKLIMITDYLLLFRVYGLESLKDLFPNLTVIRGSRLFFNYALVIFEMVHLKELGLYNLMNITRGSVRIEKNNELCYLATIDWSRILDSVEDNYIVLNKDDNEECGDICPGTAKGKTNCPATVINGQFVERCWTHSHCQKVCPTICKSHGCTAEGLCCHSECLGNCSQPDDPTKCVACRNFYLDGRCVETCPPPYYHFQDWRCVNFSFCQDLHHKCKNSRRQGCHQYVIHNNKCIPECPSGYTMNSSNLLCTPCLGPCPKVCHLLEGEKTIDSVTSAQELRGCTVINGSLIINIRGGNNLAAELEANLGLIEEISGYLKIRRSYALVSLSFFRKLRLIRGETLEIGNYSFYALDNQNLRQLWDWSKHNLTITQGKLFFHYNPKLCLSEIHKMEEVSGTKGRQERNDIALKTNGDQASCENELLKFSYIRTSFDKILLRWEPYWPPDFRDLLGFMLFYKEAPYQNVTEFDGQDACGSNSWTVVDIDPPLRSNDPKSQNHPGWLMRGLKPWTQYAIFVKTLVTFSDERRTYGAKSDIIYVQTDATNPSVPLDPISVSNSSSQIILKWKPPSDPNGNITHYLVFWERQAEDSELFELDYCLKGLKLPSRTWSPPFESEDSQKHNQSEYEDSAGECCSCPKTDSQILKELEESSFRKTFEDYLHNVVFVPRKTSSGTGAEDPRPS
Chain of Insulin receptor (Homo sapiens) (P06213 763-1382 limits assumed): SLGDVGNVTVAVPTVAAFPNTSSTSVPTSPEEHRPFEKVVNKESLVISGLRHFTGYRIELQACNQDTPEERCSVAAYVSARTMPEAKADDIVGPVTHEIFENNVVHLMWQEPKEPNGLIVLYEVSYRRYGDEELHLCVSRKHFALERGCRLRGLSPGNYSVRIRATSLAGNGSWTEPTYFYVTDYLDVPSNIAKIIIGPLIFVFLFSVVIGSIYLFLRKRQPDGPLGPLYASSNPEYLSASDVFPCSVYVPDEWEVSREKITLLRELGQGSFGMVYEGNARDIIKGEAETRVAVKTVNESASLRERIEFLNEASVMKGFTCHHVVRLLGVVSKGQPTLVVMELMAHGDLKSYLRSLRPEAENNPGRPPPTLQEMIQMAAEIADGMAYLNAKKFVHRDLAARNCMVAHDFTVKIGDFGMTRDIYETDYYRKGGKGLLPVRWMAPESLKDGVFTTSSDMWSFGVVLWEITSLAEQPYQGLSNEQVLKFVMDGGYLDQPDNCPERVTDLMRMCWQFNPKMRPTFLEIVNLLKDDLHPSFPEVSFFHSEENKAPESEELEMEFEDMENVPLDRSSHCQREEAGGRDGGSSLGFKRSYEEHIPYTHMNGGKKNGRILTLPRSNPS

[7] = target: Serine/threonine-protein kinase N2 (Homo sapiens) (UniProt Q16513); conditions: Compound concentration 1.0 uM
Chain of Serine/threonine-protein kinase N2 (Homo sapiens) (Q16513 whole entry, looked up): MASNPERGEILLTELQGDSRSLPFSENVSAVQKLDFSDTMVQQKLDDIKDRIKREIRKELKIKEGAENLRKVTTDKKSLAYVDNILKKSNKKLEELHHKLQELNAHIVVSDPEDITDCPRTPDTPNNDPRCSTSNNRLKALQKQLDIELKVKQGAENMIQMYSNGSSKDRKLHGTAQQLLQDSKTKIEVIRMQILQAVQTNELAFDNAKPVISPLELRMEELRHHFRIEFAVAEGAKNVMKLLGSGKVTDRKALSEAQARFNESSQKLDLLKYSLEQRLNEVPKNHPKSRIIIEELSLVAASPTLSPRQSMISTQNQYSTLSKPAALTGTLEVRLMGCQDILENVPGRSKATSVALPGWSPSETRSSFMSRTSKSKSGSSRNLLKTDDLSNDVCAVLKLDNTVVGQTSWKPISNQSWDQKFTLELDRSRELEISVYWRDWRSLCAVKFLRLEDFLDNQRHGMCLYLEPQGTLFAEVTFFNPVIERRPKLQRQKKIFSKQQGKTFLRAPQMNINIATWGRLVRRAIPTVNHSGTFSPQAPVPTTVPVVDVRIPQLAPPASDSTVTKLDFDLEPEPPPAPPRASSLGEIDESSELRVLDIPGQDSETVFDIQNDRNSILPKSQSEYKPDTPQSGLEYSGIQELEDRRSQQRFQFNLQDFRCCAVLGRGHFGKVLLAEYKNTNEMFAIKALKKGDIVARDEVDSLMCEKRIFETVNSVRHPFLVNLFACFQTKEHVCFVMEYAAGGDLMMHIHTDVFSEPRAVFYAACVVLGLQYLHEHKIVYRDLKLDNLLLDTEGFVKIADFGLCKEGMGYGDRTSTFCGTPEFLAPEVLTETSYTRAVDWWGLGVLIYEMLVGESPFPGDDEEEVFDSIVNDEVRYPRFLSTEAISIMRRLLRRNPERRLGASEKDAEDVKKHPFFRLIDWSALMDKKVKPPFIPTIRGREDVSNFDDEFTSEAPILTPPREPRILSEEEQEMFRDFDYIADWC

[8] = target: Calcium/calmodulin-dependent protein kinase kinase 1 (Homo sapiens) (UniProt Q8N5S9); conditions: Compound concentration 1.0 uM
Chain of Calcium/calmodulin-dependent protein kinase kinase 1 (Homo sapiens) (Q8N5S9 whole entry, looked up): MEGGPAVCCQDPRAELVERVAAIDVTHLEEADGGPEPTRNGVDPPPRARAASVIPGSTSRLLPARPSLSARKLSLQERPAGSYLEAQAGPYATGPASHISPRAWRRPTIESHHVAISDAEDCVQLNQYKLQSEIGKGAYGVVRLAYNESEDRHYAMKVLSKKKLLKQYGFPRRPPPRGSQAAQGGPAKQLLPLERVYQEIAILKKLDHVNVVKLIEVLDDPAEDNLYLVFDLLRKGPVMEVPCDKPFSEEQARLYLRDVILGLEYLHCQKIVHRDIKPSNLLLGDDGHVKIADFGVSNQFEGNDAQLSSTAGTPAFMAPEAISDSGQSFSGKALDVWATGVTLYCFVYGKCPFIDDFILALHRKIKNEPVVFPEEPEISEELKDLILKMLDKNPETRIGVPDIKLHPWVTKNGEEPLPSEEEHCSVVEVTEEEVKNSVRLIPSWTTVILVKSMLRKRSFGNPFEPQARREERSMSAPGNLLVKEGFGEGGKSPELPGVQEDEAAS

[9] = target: Receptor-type tyrosine-protein kinase FLT3 (Homo sapiens) (UniProt P36888); conditions: Compound concentration 1.0 uM
Chain of Receptor-type tyrosine-protein kinase FLT3 (Homo sapiens) (P36888 whole entry): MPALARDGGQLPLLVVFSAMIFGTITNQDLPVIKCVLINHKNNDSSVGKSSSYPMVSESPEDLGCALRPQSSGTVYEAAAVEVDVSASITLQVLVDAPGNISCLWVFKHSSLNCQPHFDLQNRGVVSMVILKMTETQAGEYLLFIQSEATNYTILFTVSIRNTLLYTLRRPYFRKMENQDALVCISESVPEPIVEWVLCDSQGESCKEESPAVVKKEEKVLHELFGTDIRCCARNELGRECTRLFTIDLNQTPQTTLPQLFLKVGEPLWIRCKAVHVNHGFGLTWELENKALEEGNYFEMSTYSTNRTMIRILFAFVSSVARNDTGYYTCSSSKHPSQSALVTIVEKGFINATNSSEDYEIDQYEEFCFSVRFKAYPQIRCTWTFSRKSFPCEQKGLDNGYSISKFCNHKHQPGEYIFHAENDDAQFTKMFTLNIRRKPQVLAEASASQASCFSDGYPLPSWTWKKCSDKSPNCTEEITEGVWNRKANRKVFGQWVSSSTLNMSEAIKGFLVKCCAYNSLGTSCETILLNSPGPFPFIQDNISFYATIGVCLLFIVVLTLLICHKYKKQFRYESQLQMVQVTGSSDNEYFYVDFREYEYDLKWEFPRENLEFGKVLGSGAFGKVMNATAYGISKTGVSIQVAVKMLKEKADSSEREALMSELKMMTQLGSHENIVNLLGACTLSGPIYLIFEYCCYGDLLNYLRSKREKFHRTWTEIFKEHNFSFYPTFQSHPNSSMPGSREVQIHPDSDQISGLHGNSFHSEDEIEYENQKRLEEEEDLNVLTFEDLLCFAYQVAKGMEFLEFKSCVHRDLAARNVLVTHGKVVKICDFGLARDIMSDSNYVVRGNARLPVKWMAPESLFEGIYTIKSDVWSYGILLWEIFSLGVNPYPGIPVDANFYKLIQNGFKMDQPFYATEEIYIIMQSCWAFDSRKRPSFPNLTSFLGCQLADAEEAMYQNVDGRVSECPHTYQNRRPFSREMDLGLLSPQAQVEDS

[10] = target: Tyrosine-protein kinase BTK (Homo sapiens) (UniProt Q06187); conditions: Compound concentration 1.0 uM
Chain of Tyrosine-protein kinase BTK (Homo sapiens) (Q06187 whole entry): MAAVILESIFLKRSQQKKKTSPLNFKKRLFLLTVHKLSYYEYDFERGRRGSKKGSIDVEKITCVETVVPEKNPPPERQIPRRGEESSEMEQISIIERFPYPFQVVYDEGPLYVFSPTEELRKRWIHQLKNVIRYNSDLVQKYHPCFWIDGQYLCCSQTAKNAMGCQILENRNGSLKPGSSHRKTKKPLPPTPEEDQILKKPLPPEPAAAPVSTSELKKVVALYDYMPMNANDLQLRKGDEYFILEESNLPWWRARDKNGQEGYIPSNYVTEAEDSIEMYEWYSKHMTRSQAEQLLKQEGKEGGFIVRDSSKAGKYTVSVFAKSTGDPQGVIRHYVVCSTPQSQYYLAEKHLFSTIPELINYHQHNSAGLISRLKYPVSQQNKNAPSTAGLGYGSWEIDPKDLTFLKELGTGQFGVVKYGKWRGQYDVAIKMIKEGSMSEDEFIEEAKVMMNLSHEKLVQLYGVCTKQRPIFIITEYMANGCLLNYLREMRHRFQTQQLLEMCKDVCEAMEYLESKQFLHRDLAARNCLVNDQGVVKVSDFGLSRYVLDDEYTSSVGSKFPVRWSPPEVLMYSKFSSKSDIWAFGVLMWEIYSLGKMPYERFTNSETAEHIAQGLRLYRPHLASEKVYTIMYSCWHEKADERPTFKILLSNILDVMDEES

[11] = target: T3, Ephrin type-B receptor 4 (Homo sapiens) (UniProt P54760); conditions: Compound concentration 1.0 uM
T3 sequence (whole entry): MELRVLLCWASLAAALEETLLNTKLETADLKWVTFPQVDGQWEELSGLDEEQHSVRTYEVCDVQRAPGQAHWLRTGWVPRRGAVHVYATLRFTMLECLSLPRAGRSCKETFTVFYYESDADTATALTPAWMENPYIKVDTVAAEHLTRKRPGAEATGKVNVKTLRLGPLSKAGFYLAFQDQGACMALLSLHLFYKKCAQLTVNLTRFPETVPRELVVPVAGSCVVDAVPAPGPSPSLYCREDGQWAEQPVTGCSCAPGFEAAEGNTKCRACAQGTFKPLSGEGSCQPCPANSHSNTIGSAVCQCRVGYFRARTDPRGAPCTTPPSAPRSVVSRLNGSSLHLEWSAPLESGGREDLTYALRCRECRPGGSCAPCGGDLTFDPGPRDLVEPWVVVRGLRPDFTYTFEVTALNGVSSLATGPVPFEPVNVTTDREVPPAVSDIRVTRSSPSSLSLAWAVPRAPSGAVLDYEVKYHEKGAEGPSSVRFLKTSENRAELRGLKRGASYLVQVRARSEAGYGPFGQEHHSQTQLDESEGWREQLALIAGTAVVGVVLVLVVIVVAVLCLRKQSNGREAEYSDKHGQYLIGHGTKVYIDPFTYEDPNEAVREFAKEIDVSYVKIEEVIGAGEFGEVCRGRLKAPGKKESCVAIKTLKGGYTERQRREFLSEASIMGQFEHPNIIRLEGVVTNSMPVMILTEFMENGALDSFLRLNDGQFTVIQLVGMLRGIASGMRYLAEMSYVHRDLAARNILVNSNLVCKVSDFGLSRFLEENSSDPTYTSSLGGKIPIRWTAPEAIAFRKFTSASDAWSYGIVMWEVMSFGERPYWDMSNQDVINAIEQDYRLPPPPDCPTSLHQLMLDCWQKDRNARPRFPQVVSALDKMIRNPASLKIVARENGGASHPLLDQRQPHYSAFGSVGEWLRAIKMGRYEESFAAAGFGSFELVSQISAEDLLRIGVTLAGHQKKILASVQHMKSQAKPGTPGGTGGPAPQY

Cc1nc(C2CCN(C(=O)c3ccc(OC(F)(F)F)cc3N)CC2)c2ncc(N3CCN(C)CC3)cc2n1 [BAY-693]
inactive: inhibition [1] 2.97%

CN1CCN(c2cnc3c(C4CCN(C(=O)c5ccc(OC(F)(F)F)cc5N)CC4)ncnc3c2)CC1 [BAY-885]
inactive: % residual kinase activity [2] 99% | % residual kinase activity [3] 106% | % residual kinase activity [4] 92% | % residual kinase activity [5] 104% | % residual kinase activity [6] 107% | % residual kinase activity [7] 104% | % residual kinase activity [8] 102% | % residual kinase activity [9] 100% | % residual kinase activity [10] 98% | % residual kinase activity [11] 103%
